Source: the supplement of paper PMC10307832

What was measured:
Experiment in all cases: relative viability (nuclei count vs DMSO), 5 days (fraction); higher = more cells survive
[1] = compound: OCc1c[nH]c2ccccc12 [Indole-3-carbinol] + O=C(c1cc(Cc2n[nH]c(=O)c3ccccc23)ccc1F)N1CCN(C(=O)C2CC2)CC1 [Olaparib] (partner 8 µM)
How it was run: (§1)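 Relative viability equals treated-well nuclei counts divided by vehicle-well nuclei counts. Counts came from 4× images of lung cancer cell lines grown in 1536-well plates for 5 days after pin-tool dosing on the day after seeding. Dosing used one drug alone or a fixed anchor-drug dose plus five library-drug doses (not always all listed) in √10 steps, and values are medians of duplicate plates.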

[2] = compound: OCc1c[nH]c2ccccc12 [Indole-3-carbinol] + CCNC(=O)c1noc(-c2cc(C(C)C)c(O)cc2O)c1-c1ccc(CN2CCOCC2)cc1 [Luminespib] (partner 0.01 µM)
How it was run: as §1

[3] = compound: OCc1c[nH]c2ccccc12 [Indole-3-carbinol] + CC(=O)c1c(C)c2cnc(Nc3ccc(N4CCNCC4)cn3)nc2n(C2CCCC2)c1=O [Palbociclib] (partner 0.5 µM)
How it was run: as §1

[4] = compound: OCc1c[nH]c2ccccc12 [Indole-3-carbinol] + NC(=O)Nc1cc(-c2cccc(F)c2)sc1C(=O)N[C@H]1CCCNC1 [AZD7762] (partner 0.2 µM)
How it was run: as §1

[5] = compound: OCc1c[nH]c2ccccc12 [Indole-3-carbinol] + C[C@]1(O)C[C@@H](c2nc(-c3ccc4ccc(-c5ccccc5)nc4c3)c3c(N)nccn32)C1 [Linsitinib] (partner 1 µM)
How it was run: as §1

Cell Line	relative viability ([1]; first compound 0.253 µM)	relative viability ([1]; first compound 0.8 µM)	relative viability ([1]; first compound 2.53 µM)	relative viability ([1]; first compound 8 µM)	relative viability ([2]; first compound 0.253 µM)	relative viability ([2]; first compound 0.8 µM)	relative viability ([2]; first compound 2.53 µM)	relative viability ([2]; first compound 8 µM)	relative viability ([3]; first compound 0.253 µM)	relative viability ([3]; first compound 0.8 µM)	relative viability ([3]; first compound 2.53 µM)	relative viability ([3]; first compound 8 µM)	relative viability ([4]; first compound 0.253 µM)	relative viability ([4]; first compound 0.8 µM)	relative viability ([4]; first compound 2.53 µM)	relative viability ([4]; first compound 8 µM)	relative viability ([5]; first compound 0.253 µM)	relative viability ([5]; first compound 0.8 µM)	relative viability ([5]; first compound 2.53 µM)	relative viability ([5]; first compound 8 µM)
LCLC-103H	0.732	0.734	0.763	0.633	0.873	0.939	0.901	0.811	0.492	0.48	0.451	0.405	0.802	0.786	0.86	0.81	1.13	1.04	1.12	0.972
LK-2	0.877	0.675	0.808	0.713	0.214	0.203	0.229	0.181	0.674	0.489	1.05	0.703	0.454	0.363	0.324	0.539	0.627	0.572	0.47	0.536
LOU-NH91	0.916	0.872	0.974	0.893	0.369	0.342	0.306	0.356	0.492	0.547	0.535	0.497	0.791	0.703	0.77	0.755	1.01	0.899	0.937	0.943
LU99A	0.256	0.299	0.23	0.268	0.237	0.199	0.209	0.207	0.397	0.423	0.385	0.381	0.379	0.392	0.434	0.329	0.501	0.556	0.428	0.536
LXF-289	1.24	1.09	1.09	1.08	0.787	0.754	0.647	0.575	0.58	0.611	0.609	0.56	1.25	1.1	1.13	1.03	0.977	1.03	0.996	0.892
NCI-H23	0.316	0.353	0.3	0.276	0.219		0.233	0.223	0.435	0.463	0.546	0.419	0.315	0.263	0.256	0.294	0.668	0.649	0.722	0.485
NCI-H322M	0.779	0.692	0.773	0.725	0.828	0.861	0.895	0.783	0.456	0.481	0.506	0.476	0.607	0.596	0.514	0.613	0.9	0.899	0.974	0.839
NCI-H358	0.619	0.659	0.717	0.569	0.366	0.447	0.458	0.233	0.145	0.125	0.136	0.12	0.56	0.489	0.591	0.507	0.697	0.7	0.734	0.709
NCI-H441	0.61	0.685	0.572	0.496	0.324	0.334	0.456	0.301	0.202	0.267	0.249	0.185	1.34	1.23	1.27	1.15	0.582	0.688	0.576	0.441
NCI-H460	0.38	0.377	0.455	0.375	0.0368	0.037	0.0298	0.0346	0.149	0.17	0.229	0.19	0.652	0.602	0.679	0.645	0.773	0.875	0.713	0.689
NCI-H647	0.578	0.735	0.693	0.409	0.261	0.199	0.156	0.236	0.392	0.318	0.292	0.433	0.604	0.293	0.463	0.551	1.08	1.44	1.13	1.04
NCI-H650	0.395	0.403	0.418	0.359	0.785	0.882	0.844	0.647	0.311	0.338	0.352	0.307	1.01	1.21	0.967	1.04	0.948	0.773	0.909	0.712
NCI-H727	0.616	0.694	0.657	0.634	0.355	0.452	0.344	0.328	0.634	0.669	0.699	0.648	0.664	0.834	0.579	0.551	0.178	0.31	0.268	0.283
NCI-H838	0.856	0.85	0.75	0.704	0.292	0.305	0.308	0.303	0.191	0.203	0.231	0.223	1.05	0.84	0.975	0.883	1.09	0.975	1.02	0.951
NCI-H1355	0.782	0.77	0.772	0.699	0.754	0.764	0.618	0.643	0.401	0.379	0.43	0.392	0.859	0.806	0.799	0.778	0.774	0.802	0.764	0.715
NCI-H1395	0.42	0.478	0.48	0.413	0.606	0.813	0.817	0.686	0.625	0.589	0.734	0.531	0.404	0.41	0.379	0.399	1.04	0.974	1.02	1.14

Cell Line	relative viability ([1]; first compound 0.253 µM)	relative viability ([1]; first compound 0.8 µM)	relative viability ([1]; first compound 2.53 µM)	relative viability ([1]; first compound 8 µM)	relative viability ([2]; first compound 0.253 µM)	relative viability ([2]; first compound 0.8 µM)	relative viability ([2]; first compound 2.53 µM)	relative viability ([2]; first compound 8 µM)	relative viability ([3]; first compound 0.253 µM)	relative viability ([3]; first compound 0.8 µM)	relative viability ([3]; first compound 2.53 µM)	relative viability ([3]; first compound 8 µM)	relative viability ([4]; first compound 0.253 µM)	relative viability ([4]; first compound 0.8 µM)	relative viability ([4]; first compound 2.53 µM)	relative viability ([4]; first compound 8 µM)	relative viability ([5]; first compound 0.253 µM)	relative viability ([5]; first compound 0.8 µM)	relative viability ([5]; first compound 2.53 µM)	relative viability ([5]; first compound 8 µM)
NCI-H1437	0.65	0.675	0.639	0.619	1.07	1.2	1.13	1.11	0.296	0.346	0.296	0.305	1.21	1.22	1.15	1.09	0.986	1.16	1.04	0.894
NCI-H1651	0.195	0.203	0.161	0.175	0.848	0.877	0.686	0.753	0.53	0.521	0.524	0.495	0.448	0.441	0.438	0.437	0.873	1.11	1.06	0.895
NCI-H1666	0.803	0.731	0.766	0.728	0.914	0.925	1.01	1.05	0.667	0.694	0.667	0.626	0.914	0.743	0.827	0.739	0.81	0.867	0.84	0.808
NCI-H1734	0.61	0.619	0.613	0.58	0.242	0.246	0.194	0.221	0.352	0.376	0.331	0.31	0.519	0.601	0.551	0.512	0.947	0.872	0.835	0.813
NCI-H1755	0.894	0.926	0.929	0.872	0.554	0.407	0.49	0.348	0.489	0.444	0.487	0.423	0.463	0.42	0.5	0.42	1.03	1.05	0.95	0.959
NCI-H1792	0.612	0.532	0.553	0.3	0.416	0.484	0.368	0.398	0.74	0.634	0.675	0.697	0.734	0.786	0.901	0.77	0.499	0.37	0.506	0.47
NCI-H1793	0.947	0.917	0.505	0.764	0.171	0.179	0.142	0.175	0.346	0.281	0.298	0.315	0.424	0.468	0.507	0.455	0.932	0.898	1.08	0.927
NCI-H1915	0.253	0.243	0.282	0.25	0.695	0.794	0.741	0.662	0.5	0.521	0.532	0.486	0.655	0.625	0.767	0.737	1.09	1.1	1.1	1.11
NCI-H1944	0.38	0.348	0.388	0.368	0.792	0.682	0.842	0.79	0.338	0.279	0.304	0.311	0.517	0.441	0.509	0.54	1.27	1.1	1.17	1.17
NCI-H1975	0.801	0.847	0.822	0.77	0.343	0.224	0.171	0.21	0.699	0.704	0.554	0.644	0.624	0.79	0.764	0.613	0.812	1.05	0.964	0.954
NCI-H1993	1.01	1.12	0.98	0.927	1.02	0.915	0.889	0.823	0.713	0.635	0.664	0.521	0.827	0.876	0.691	0.843	0.692	0.793	0.815	0.667
NCI-H2085	0.9	0.844	0.773	0.691	0.456	0.429	0.395	0.498	0.469	0.492	0.451	0.439	0.965	1.01	1.05	0.893	0.828	0.897	0.982	0.779
NCI-H2087	0.575	0.631	0.625	0.541	0.119	0.194	0.177	0.172	0.193	0.278	0.27	0.262	1.31	1.46	1.33	1.15	1.07	1.04	1.01	0.915
NCI-H2126	0.859	1	0.934	0.87	0.887	0.876	0.992	0.851	0.299	0.366	0.362	0.34	0.999	1.08	1.02	1.01	0.694	0.715	0.68	0.702
NCI-H2347	0.624	0.582	0.634	0.549	0.609	0.215	0.425	0.59	0.426	0.471	0.419	0.407	0.936	0.676	0.702	0.765	0.986	1.06	1.04	0.793
NCI-H2405	0.907	0.889	0.908	0.823	0.847	0.812	0.859	0.696	0.513	0.554	0.553	0.491	0.839	0.727	0.755	0.659	0.945	0.805	0.903	0.89
